Blank lines part the entries; values can stand above or below the compound they belong to.
What was measured:
[1] = dog, in vivo
Experimental: Four male beagle dogs weighing 9.5-11 kg are used and are fasted for two days prior to experimentation. Witepsol H-15 is used as an excipient to prepare the suppository formulation of cefmetazole. Microenema formulations are prepared with aqueous 0.02M phosphate buffer with a final pH of 7.4. Either a 1 g suppository or a 1 ml microenema is given to each dog. The formulations may contain varying amounts of adjuvant. Blood samples are taken from the foreleg vein at predetermined sampling times after dosing. Blood samples are heparinized and centrifuged at 3,000 rpm for 10 minutes. The concentration of cefmetazole in the plasma of the dogs is analyzed as a function of time using plasma aliquots for the assay of cefmetazole.

[2] = in situ perfusion method of the rectum (perfusate recirculated through the rat rectum; drug remaining in the perfusate)
Experimental: In this experiment, the amount of remaining theophylline, originally at a concentration of about 200 mg/ml, in aqueous solution and continually recirculated or perfused to the rectal compartment of the rat, at the end of one hour, is shown as the lower plot for studies carried out in the presence of 0.2% sodium salicylate, is shown as the upper plot.
A second cannula is inserted through the anus 1 cm inside the rectum and secured by ligation. Thus, about 2 cm of the rectum is exposed to the perfusate. The perfustate (6 ml) is circulated at a rate of 2 ml/min at 38°C. As perfustate, 1/15 M-phosphate buffer solutions are used and the ionic strength of the perfusate is adjusted to 0.75 with sodiumchloride as necessary. […] The amount of drug remaining in the perfusate is analyzed as a function of time by appropriate methods, e.g., by high-pressure liquid chromatography.
A second cannula is inserted through the anus 1 cm. inside the rectum and secured by ligation. Thus, about 2 cm of the rectum is exposed to the perfusate. The perfusate (6 ml) is circulated at a rate of 2 ml/min at 38°C. As perfusate, 1/15 M-phosphate buffer solutions are used and the ionic strength of the perfusate is adjusted to 0.75 with sodium chloride as necessary. […] The amount of drug remaining in the perfusate is analyzed as a function of time by appropriate methods, e.g. by high-pressure liquid chromatography.

- bioavailability, suppository formulations versus microenema formulations [1]: greater bioavailability
- rectal absorption of cefmetazole [1]: significantly enhanced
SMILES: CO[C@@]1(NC(=O)CSCC#N)C(=O)N2C(C(=O)O)=C(CSc3nnnn3C)CS[C@@H]21 [cefmetazole, Cefmetazole]

SMILES: O=C(O)c1cc(O)ccc1O [gentisic acid]
- adjuvant effect on the rectal absorption ([2]; Figure 4 (theophylline)): evident

SMILES: Cn1c(=O)c2[nH]cnc2n(C)c1=O [theophylline, 3,7-Dihydro-1,3-dimethyl-1H-purine-2,6-dione]
- effect of the salicylate on the rate of absorption of theophylline from the rectal compartment ([2]; Figure 1, theophylline about 200 mg/ml aqueous solution, amount remaining at end of one hour, 0.2% sodium salicylate, effect greatest below pH 5.5 and above pH 7.5): marked effect

From patent publication EP0031561B1, “A rectally administered suppository comprising a drug and an adjuvant” (Merck & Co., Inc., priority 1979, dated 1981)
